# Results from US20260306453A1, “FORMULATIONS CONTAINING TRYPTAMINE DERIVATIVES AND USES THEREOF” (priority 2023, published 2026).
# Read-outs that look alike come from different tables or passages of the source.
# What was measured:
# [1] = target: 5-HT1D (Homo sapiens, UniProt P28221); assay: Radioligand binding in vitro assay, 5-HT1D
# [2] = target: 5-HT1B (Homo sapiens, UniProt P28222); assay: Radioligand binding in vitro assay, 5-HT1B
# [3] = target: T1, 5-HT2B (Homo sapiens, UniProt P41595); assay: Radioligand binding in vitro assay, 5-HT2B
# [4] = target: 5-HT1E (Homo sapiens, UniProt P28566); assay: Radioligand binding in vitro assay, 5-HT1E
# [5] = target: T2, 5-HT7A (Homo sapiens, UniProt P34969); assay: Radioligand binding in vitro assay, 5-HT7A
# [6] = target: Sigma 1 (Homo sapiens, UniProt Q99720); assay: Radioligand binding in vitro assay, Sigma 1
# [7] = target: Sigma 2 (Homo sapiens, UniProt Q5BJF2); assay: Radioligand binding in vitro assay, Sigma 2
# [8] = rat, in vivo
# [9] = in vivo; conditions: rat, 3 mg/kg
# [10] = target: T3, 5-HT6 (Homo sapiens, UniProt P50406); assay: Radioligand binding in vitro assay, 5-HT6
# [11] = target: 5-HT5A (Homo sapiens, UniProt P47898); assay: Radioligand binding in vitro assay, 5-HT5A
# [12] = Rat pharmacodynamics (hypothermia) of intranasal DMT; conditions: in vivo
# [13] = test system: mice; assay: 2-day Porsolt Forced-Swim Test; type: in vivo; conditions: Mus musculus, ip, both days, read-out: Porsolt Forced Swim (Both Days), minimum effective dose
# From the text: The 2-day Porsolt Forced-Swim Test is a preclinical assay that tests for antidepressant effects in mice. […] Day 2 behavior is more likely to assess learning and memory with shorter swim times indicative of learning to be rescued.
# [14] = test system: mice; assay: Elevated plus maze
# [15] = test system: mice; assay: In vivo mouse head-twitch response
# [16] = target: T2, 5-HT7A; assay: In vitro functional activity, 5-HT7A; type: biochemical; conditions: agonism; inverse agonism at 5-HT7A
# From the text: (§1) The functional activity considers agonism vs. antagonism. […] Each of these receptors affects mental health, learning, memory, and more specifically, 5-HT6 is responsible for precognitive effects and neuronal connections, growth, and migration.
# [17] = target: T4, 5-HT2A (Homo sapiens, UniProt P28223); assay: In vitro functional activity, 5-HT2A; type: biochemical; conditions: agonism
# [18] = target: T5, 5-HT2C (Homo sapiens, UniProt P28335); assay: biochemical; conditions: agonism
# [19] = target: T3, 5-HT6; assay: In vitro functional activity, 5-HT6; type: biochemical; conditions: agonism
# From the text: as §1
# [20] = test system: mice; assay: Fear extinction and conditioning; type: in vivo, mouse
# From the text: The fear extinction and conditioning model is a preclinical assay that performs a stimulus and tests response time and recognition of the stimulus. This translational model can correlate to anxiety, PTSD, memory, and precognitive effects to the positive control (4-AcO-DMT).
# [21] = target: T5, 5-HT2C; assay: biochemical; conditions: radioligand binding
# [22] = target: 5-HT1A (Homo sapiens, UniProt P08908); assay: Radioligand binding in vitro assay, 5-HT1A
# [23] = target: T4, 5-HT2A; assay: biochemical; conditions: radioligand binding
# [24] = type: in vivo; conditions: rat; oral or IV administration; within minutes
# Description: The rat PK (FIG. 6) was assessed with an oral dose of 10 mg/kg and intravenously at 1 mg/kg. […] The PK and brain concentrations were assessed in cohorts of 3 […] for each dosing group and between the plasma vs brain concentrations. For 10 mg/kg oral dosing, the PK parameters are outlined in Table 16 below.
# 1 mg/kg IV dosing, the PK parameters are outlined in Table 17.
# [25] = target: T1, 5-HT2B; assay: In vitro functional activity, 5-HT2B; type: biochemical; conditions: agonism
# From the text: as §1
# [26] = radioligand binding, read-out: Ki 5-HT1D
# [27] = radioligand binding, read-out: Ki 5-HT1B
# [28] = radioligand binding, read-out: Ki 5-HT1E
# [29] = radioligand binding, read-out: Ki Sigma 1
# [30] = radioligand binding, read-out: Ki Sigma 2
# [31] = radioligand binding, read-out: Ki 5-HT5A
# Chain of Sigma 1 (Q99720 whole entry): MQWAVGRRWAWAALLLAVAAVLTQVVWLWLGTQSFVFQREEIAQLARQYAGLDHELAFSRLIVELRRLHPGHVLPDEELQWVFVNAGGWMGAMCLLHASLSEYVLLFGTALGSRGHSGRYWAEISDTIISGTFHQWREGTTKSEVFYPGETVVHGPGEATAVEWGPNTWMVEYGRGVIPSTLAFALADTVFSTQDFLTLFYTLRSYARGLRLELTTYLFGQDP
# T5 sequence (P28335 33-458): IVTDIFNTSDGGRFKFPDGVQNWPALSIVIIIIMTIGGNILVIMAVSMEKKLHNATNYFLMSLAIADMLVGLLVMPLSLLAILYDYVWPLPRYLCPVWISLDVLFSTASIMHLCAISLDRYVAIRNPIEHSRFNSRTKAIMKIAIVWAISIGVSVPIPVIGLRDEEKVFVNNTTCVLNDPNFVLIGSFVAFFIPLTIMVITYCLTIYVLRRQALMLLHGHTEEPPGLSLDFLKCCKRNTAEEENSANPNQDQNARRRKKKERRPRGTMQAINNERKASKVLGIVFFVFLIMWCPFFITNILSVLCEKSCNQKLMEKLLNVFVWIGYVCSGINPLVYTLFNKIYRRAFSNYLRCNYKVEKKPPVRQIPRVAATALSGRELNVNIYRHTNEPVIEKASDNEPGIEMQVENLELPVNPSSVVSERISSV
# Chain of 5-HT5A (P47898 whole entry): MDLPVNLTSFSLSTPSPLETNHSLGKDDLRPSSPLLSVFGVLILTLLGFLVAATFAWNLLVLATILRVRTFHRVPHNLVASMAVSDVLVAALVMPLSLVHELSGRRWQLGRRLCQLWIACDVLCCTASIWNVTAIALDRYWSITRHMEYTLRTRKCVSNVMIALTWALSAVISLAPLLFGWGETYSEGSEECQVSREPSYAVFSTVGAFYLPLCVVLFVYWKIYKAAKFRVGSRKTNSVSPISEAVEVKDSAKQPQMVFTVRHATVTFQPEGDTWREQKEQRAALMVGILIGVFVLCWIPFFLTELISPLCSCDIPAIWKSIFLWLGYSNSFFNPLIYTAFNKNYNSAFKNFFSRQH
# Chain of 5-HT1E (P28566 whole entry): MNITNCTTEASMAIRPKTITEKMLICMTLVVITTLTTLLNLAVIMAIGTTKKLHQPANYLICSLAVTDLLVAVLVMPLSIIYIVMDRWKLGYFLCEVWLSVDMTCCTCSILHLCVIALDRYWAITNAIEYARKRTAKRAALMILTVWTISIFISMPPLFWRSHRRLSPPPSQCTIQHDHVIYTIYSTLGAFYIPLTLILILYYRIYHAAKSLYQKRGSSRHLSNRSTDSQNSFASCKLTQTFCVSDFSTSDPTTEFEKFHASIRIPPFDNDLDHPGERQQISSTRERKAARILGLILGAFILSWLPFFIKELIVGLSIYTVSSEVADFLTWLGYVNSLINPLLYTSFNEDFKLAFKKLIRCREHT
# T2 sequence (P34969 other isoform, or with tags, fused parts or gaps): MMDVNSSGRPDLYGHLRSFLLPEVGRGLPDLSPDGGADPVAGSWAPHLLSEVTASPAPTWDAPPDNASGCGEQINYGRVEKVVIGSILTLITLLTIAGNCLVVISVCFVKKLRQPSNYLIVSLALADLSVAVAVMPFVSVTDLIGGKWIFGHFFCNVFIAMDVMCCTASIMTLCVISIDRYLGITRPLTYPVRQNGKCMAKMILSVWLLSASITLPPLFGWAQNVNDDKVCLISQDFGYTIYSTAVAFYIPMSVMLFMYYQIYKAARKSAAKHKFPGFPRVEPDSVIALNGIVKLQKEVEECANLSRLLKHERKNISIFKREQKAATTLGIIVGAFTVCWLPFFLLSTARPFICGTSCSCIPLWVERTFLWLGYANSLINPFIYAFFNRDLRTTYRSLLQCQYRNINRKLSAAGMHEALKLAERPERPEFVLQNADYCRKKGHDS
# Chain of Sigma 2 (Q5BJF2 whole entry): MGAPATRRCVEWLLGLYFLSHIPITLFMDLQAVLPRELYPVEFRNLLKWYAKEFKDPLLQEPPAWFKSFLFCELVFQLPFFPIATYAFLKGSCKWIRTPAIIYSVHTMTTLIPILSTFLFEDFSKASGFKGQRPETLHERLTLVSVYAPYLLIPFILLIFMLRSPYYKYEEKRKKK
# Chain of 5-HT1B (P28222 whole entry): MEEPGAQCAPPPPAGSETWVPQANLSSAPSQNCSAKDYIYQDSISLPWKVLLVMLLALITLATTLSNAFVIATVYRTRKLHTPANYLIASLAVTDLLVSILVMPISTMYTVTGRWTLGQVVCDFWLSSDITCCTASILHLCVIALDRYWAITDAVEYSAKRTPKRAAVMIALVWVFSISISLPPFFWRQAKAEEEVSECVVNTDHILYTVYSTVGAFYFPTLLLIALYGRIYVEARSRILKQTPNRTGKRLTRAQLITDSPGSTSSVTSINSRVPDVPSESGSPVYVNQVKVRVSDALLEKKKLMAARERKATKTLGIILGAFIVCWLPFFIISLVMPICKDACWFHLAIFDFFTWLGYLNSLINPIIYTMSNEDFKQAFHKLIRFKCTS
# T4 sequence (P28223 whole entry): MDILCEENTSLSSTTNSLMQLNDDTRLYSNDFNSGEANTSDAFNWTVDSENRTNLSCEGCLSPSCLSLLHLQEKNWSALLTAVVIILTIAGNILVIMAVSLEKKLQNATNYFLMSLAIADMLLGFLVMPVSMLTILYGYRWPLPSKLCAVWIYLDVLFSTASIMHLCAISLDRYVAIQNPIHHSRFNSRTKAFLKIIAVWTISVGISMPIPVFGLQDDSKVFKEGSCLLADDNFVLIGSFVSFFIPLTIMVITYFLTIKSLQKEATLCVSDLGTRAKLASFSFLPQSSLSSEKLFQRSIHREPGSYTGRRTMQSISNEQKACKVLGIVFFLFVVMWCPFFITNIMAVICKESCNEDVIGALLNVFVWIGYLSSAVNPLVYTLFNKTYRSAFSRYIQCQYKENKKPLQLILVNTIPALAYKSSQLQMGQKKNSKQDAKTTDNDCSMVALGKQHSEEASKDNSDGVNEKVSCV
# Chain of 5-HT1A (P08908 whole entry): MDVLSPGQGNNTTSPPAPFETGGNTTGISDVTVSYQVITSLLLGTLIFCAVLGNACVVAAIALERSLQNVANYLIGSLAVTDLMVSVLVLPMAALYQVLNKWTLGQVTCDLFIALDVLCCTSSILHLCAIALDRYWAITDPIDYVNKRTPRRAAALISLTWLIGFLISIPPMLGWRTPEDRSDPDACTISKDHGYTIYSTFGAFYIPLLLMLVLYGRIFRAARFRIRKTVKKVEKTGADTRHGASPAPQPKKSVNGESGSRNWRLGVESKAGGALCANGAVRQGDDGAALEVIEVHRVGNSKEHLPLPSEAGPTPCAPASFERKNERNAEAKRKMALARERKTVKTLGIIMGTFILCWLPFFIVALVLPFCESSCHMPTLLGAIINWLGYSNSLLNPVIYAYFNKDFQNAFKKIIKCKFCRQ
# T1 sequence (P41595 whole entry): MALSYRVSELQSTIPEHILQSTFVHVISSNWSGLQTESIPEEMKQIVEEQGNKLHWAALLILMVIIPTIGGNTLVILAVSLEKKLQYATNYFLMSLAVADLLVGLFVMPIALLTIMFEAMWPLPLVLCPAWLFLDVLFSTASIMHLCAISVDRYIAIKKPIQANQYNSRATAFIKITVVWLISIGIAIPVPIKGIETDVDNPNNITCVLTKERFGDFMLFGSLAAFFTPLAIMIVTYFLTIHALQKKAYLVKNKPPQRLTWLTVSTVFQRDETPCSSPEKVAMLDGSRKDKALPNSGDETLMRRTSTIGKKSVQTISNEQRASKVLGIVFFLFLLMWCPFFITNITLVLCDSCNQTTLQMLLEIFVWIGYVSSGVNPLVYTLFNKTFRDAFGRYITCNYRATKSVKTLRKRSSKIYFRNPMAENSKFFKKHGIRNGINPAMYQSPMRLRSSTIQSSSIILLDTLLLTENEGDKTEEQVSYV
# T3 sequence (P50406 whole entry): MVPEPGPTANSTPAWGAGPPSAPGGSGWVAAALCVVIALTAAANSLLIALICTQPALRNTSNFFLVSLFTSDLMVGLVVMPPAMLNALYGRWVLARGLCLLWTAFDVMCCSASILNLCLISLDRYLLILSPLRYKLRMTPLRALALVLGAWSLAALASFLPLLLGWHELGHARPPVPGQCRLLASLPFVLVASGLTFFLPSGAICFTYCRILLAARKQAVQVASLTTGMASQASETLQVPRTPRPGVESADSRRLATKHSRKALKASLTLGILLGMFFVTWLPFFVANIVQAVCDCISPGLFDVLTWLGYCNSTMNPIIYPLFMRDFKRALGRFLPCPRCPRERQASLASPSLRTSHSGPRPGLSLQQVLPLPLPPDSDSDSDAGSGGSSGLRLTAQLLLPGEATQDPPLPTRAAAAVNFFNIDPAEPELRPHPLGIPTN
# Chain of 5-HT1D (P28221 whole entry): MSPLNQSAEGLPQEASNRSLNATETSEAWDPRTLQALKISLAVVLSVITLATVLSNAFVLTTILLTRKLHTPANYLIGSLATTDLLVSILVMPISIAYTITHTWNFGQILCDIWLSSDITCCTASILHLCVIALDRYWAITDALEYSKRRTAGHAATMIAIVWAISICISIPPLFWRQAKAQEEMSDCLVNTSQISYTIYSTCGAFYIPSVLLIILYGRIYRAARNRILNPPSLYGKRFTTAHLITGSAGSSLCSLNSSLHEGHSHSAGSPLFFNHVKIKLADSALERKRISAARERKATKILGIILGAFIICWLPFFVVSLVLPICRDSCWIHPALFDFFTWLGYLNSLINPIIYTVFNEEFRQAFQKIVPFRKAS
smiles,measurement,setting,value
CC(=O)Oc1cccc2[nH]c(Br)c(CCN(C)C)c12 [drawing 5],Ki,[1]; [26],> 10000 nM
same,Ki,[2]; [27],> 10000 nM
same,Ki,[3],67.7 nM
same,Ki,[4]; [28],> 10000 nM
CC(=O)Oc1cccc2[nH]cc(CCN(C)C)c12 [drawing 11],Ki,[5]; radioligand binding,59.6 nM
same,Ki,[6]; [29],> 10000 nM
same,Ki,[7]; [30],> 10000 nM
"CN(C)CCc1c[nH]c2ccccc12 [N,N-dimethyltryptamine, reference compound]",tmax (maximal effects),[8],10 min
same,Ki,[5],15.2 nM
same,Ki,[6],230 nM
same,Ki,[7],777 nM
same,Cmax,[9],60 ng/mL
same,Ki,[10],134 nM
same,Ki,[11],155 nM
same,Ki,[1],42.2 nM
same,Ki,[2],557 nM
same,hypothermia,[12],dose-dependent hypothermia
same,Ki,[4],104 nM
CC(=O)Oc1cccc2[nH]c(Br)c(CCN(C)C)c12 [drawing 29],minimal effective dose,[13],5 mg/kg
CN(C)CCc1c[nH]c2cccc(NS(C)(=O)=O)c12 [drawing 33],"Elevated Plus Maze, effective dose range",[14],25 mg/kg
CC(C)N(CCc1c(Br)[nH]c2ccccc12)C(C)C [drawing 6],Ki,[1]; [26],1070 nM
same,Ki,[2]; [27],> 10000 nM
same,Ki,[3],45.2 nM
same,Ki,[4]; [28],> 10000 nM
CN(C)CCc1c(Cl)[nH]c2ccccc12 [drawing 28],minimal effective dose,[13],25 mg/kg
CN(C)CCc1c[nH]c2cccc(NS(C)(=O)=O)c12 [drawing 25],Head Twitch Response Results,[15],No Head Twitch up to 25 mg/kg
CN(C)CCc1c(Cl)[nH]c2ccccc12 [drawing 17],EC50,[16],630 nM
same,EC50,[17],202 nM
same,EC50,[18],4480 nM
same,EC50,[19],9 nM
CC(=O)Oc1cccc2[nH]c(Br)c(CCN(C)C)c12 [drawing 35],"Fear Extinction and Conditioning, effective dose range",[20],5 to 25 mg/kg
CN(C)CCc1c[nH]c2cccc(NS(C)(=O)=O)c12 [drawing 14],Ki,[5]; radioligand binding,930 nM
same,Ki,[6]; [29],> 10000 nM
same,Ki,[7]; [30],> 10000 nM
same,Ki,[10]; radioligand binding,> 10000 nM
same,Ki,[21],> 10000 nM
CN(C)CCc1c(Br)[nH]c2ccccc12 [drawing 2],Ki,[22],> 10000 nM
same,Ki,[1]; [26],> 10000 nM
same,Ki,[2]; [27],> 10000 nM
same,Ki,[3],222 nM
same,Ki,[23],417 nM
same,Ki,[4]; [28],> 10000 nM
CC(=O)Oc1cccc2[nH]c(Br)c(CCN(C)C)c12 [drawing 31],"Elevated Plus Maze, effective dose range",[14],5 to 10 mg/kg
CC(=O)Nc1cccc2[nH]cc(CCN(C)C)c12 [drawing 8],Ki,[22],570 nM
same,Ki,[3],700 nM
same,Ki,[23],3400 nM
CN(C)CCc1c(Cl)[nH]c2ccccc12 [drawing 10],Ki,[5]; radioligand binding,178 nM
same,Ki,[6]; [29],638 nM
same,Ki,[7]; [30],> 10000 nM
same,Ki,[10]; radioligand binding,62 nM
same,Ki,[11]; [31],3000 nM
same,Ki,[21],120 nM
CC(=O)Nc1cccc2[nH]cc(CCN(C)C)c12 [drawing 26],Head Twitch Response Results,[15],No Head Twitch up to 50 mg/kg
CC(C)N(CCc1c(Br)[nH]c2ccccc12)C(C)C [drawing 13],Ki,[5]; radioligand binding,4930 nM
same,Ki,[6]; [29],257 nM
same,Ki,[7]; [30],483 nM
same,Ki,[10]; radioligand binding,407 nM
same,Ki,[11]; [31],> 10000 nM
same,Ki,[21],> 10000 nM
CC(C)N(CCc1c(Br)[nH]c2ccccc12)C(C)C [drawing 30],minimal effective dose,[13],10 mg/kg
CC(C)N(CCc1c(Br)[nH]c2ccccc12)C(C)C [drawing 32],"Elevated Plus Maze, effective dose range",[14],25 mg/kg
CN(C)CCc1c(Cl)[nH]c2ccccc12 [drawing 21],Head Twitch Response Results,[15],No Head Twitch up to 100 mg/kg
CC(C)N(CCc1c(Br)[nH]c2ccccc12)C(C)C [drawing 36],"Fear Extinction and Conditioning, effective dose range",[20],1 to 10 mg/kg
CC(=O)Oc1cccc2[nH]cc(CCN(C)C)c12 [drawing 4],Ki,[3],11.6 nM
CC(C)N(CCc1c(Br)[nH]c2ccccc12)C(C)C [drawing 24],Head Twitch Response Results,[15],No Head Twitch up to 25 mg/kg
CN(C)CCc1c(Br)[nH]c2ccccc12 [drawing 27],minimal effective dose,[13],1 to 10 mg/kg
CC(=O)Oc1cccc2[nH]c(Br)c(CCN(C)C)c12 [drawing 23],Head Twitch Response Results,[15],No Head Twitch up to 50 mg/kg
CC(=O)Nc1cccc2[nH]cc(CCN(C)C)c12 [drawing 15],Ki,[5]; radioligand binding,290 nM
same,Ki,[6]; [29],> 10000 nM
same,Ki,[7]; [30],> 10000 nM
same,Ki,[10]; radioligand binding,> 10000 nM
same,Ki,[21],1000 nM
"Br.CN(C)CCc1c(Br)[nH]c2ccccc12 [2-Br-4-AcO-DMT*HBr, 2-(2-bromo-1H-indol-3-yl)-N,N-dimethylethan-1-amine hydrobromide salt]",metabolism via deacetylation into 2-Br-4-OH-DMT,[24],rapidly metabolized via deacetylation into an active metabolite
CN(C)CCc1c(Br)[nH]c2ccccc12 [drawing 34],"Fear Extinction and Conditioning, effective dose range",[20],1 to 10 mg/kg
CN(C)CCc1c[nH]c2cccc(NS(C)(=O)=O)c12 [drawing 7],Ki,[22],2900 nM
same,Ki,[3],1900 nM
same,Ki,[23],> 10000 nM
CN(C)CCc1c(Br)[nH]c2ccccc12 [drawing 9],Ki,[5]; radioligand binding,137 nM
same,Ki,[6]; [29],239 nM
same,Ki,[7]; [30],2460 nM
same,Ki,[11]; [31],1520 nM
CC(C)N(CCc1c(Br)[nH]c2ccccc12)C(C)C [drawing 19],EC50,[16],5870 nM
same,EC50,[17],2130 nM
same,EC50,[18],> 10000 nM
same,EC50,[25],18 nM
same,EC50,[19],186 nM
CN(C)CCc1c(Br)[nH]c2ccccc12 [drawing 16],EC50,[16],225 nM
same,EC50,[17],> 10000 nM
same,EC50,[25],799 nM
same,EC50,[19],7 nM
CN(C)CCc1c(Cl)[nH]c2ccccc12 [drawing 3],Ki,[1]; [26],> 10000 nM
same,Ki,[2]; [27],> 10000 nM
same,Ki,[3],191 nM
same,Ki,[4]; [28],3910 nM
CC(=O)Oc1cccc2[nH]c(Br)c(CCN(C)C)c12 [drawing 18],EC50,[16],917 nM
same,EC50,[18],864 nM
same,EC50,[19],8 nM
CC(=O)Oc1cccc2[nH]c(Br)c(CCN(C)C)c12 [drawing 12],Ki,[5]; radioligand binding,396 nM
same,Ki,[6]; [29],> 10000 nM
same,Ki,[7]; [30],> 10000 nM
same,Ki,[10]; radioligand binding,70.7 nM
same,Ki,[11]; [31],894 nM
same,Ki,[21],1220 nM
CN(C)CCc1c(Br)[nH]c2ccccc12 [drawing 20],Head Twitch Response Results,[15],No Head Twitch up to 50 mg/kg
"CC(=O)Oc1cccc2[nH]cc(CCN(C)C)c12 [drawing 22, reference compound]",Head Twitch Response Results,[15],Positive Control causes head twitch at 20 mg/kg
